Assay results as given in article PMC9376946, “Peptide-RNA Coacervates as a Cradle for the Evolution of Folded Domains” (Journal of the American Chemical Society, 2022).
Values joined by “and” are separate entries in the source; they are usually repeats but may differ in a detail not shown here. Equal entries are not always repeated.

What was measured:
polyU [1] = assay: DEER of peptides in the presence of polyU; format: binding; conditions: for local concentration of detected spins: from DEER background decay, calibration curve
Description: (§1) For pulse EPR measurements, 5–6 μL of peptide in D2O with 20% glycerol-d8 was introduced into a quartz capillary of 0.9 mm i.d. and 1.1 mm o.d. and sealed with Critoseal at one end. The samples with polyU (and thus, the potential for coacervates) were flash-frozen in liquid nitrogen after incubating at room temperature for 15–20 min. Samples without polyU were directly inserted into the spectrometer at 25 K.
Pulse EPR measurements were carried out at the W band (94.9 GHz) on a home-built spectrometer at 25 K.[22]−[24] Echo intensities were measured with a Hahn echo sequence (π/2νobs – τ – πνobs – τ – echo) using π/2 and π pulses of 20–25 ns and 40–50 ns, respectively, and τ = 500 ns. Echo decays were measured under the same conditions with an initial τ value of 500 ns. DEER measurements were recorded using the four-pulse DEER sequence (π/2νobs – τ1 – πνobs – (τ1 + t) – πνpump – (τ2-t) – πνobs – τ2 – echo)[25],[26] with a chirp pump pulse[23] using eight-step phase cycling and monitoring the echo intensity as a function of increasing t. The maximum intensity of the nitroxide spectrum was set to 94.9 GHz, the observer pulses were set to 94.85 GHz, and the π/2 and π pulse durations were 35–40 and 70–80 ns. The chirp pump pulse frequency was 94.88–94.98 GHz with a duration of 128 ns. The repetition time was 10 ms. The samples without polyU and a concentration above 50 μM were averaged for 1–5 h. All the samples with a concentration ≤50 μM and all the samples in the presence of polyU were averaged for 6–14 h. The DEER data were analyzed using the DeerAnalysis 2018[27] program with Tikhonov regularization[28] and also verified with DEERNet.[29] For DeerAnalysis, the background was fitted with a homogenous three-dimensional distribution. The calculated distance distributions were obtained from mtsslSuite[30] using maleimide TEMPO (M-TEMPO) as the ligand, and 200 rotamer conformations were generated using clash treatment set to “loose”.
We carried out DEER measurements on the series of samples with 150 μM PA-12 and varying amounts of polyU (Figure 5A). DEER traces were analyzed in terms of several parameters: (i) the modulation depth, Δ, which gives information about the amount of dimers present; (ii) the slope of the background decay, which gives information on the average local concentration of the observed spins;[36],[40] and (iii) the SNR, which indicates how many spins were observed. […] The decrease in the background decay slope and SNR are consistent with the observed reduction in echo intensity (Figure 4A). We therefore conclude that the observed DEER modulation arose from the unbound PA-12 dimers, whereas the polyU-bound PA-12 could not be detected, as discussed in the description of the echo decays. As the polyU concentration increases, the PA-12 concentration in the dispersed phase decreases and therefore the dimer population decreases as well (eq 1), ultimately resulting in the disappearance of the modulation at about 0.5 mg/mL polyU.
We summarized our experimental observations in Figure 5B, where we plot the decrease degree (in %) in the background decay, the echo intensity, and the modulation depth as a function of polyU concentration. For all parameters, the graphs show a similar linear behavior in the high PA/polyU regime below 0.5 mg/mL polyU. […] At 0.5 mg/mL polyU, an inflection point is detected: Above 0.5 mg/mL polyU, population II reaches a plateau and we have a small gain in echo intensity and background decay, but a large gain in modulation depth. From this series of experiments, we conclude that PA bound to polyU has restricted motion and that dimers of PA exist also when bound to polyU within the coacervate. We determined the local concentration of the spins contributing to the DEER traces in the PA/polyU mixtures from a calibration curve generated from the background decay slopes of the DEER data of PA-12 in the absence of polyU (Figure S10D), and the results are given in Table 2. […]

polyU [2] = assay: W-band echo intensity and echo decay of PA-12 with polyU; format: binding
Description: as §1
Pulse EPR measurements were carried out at the W band (94.9 GHz) on a home-built spectrometer at 25 K.[22]−[24] Echo intensities were measured with a Hahn echo sequence (π/2νobs – τ – πνobs – τ – echo) using π/2 and π pulses of 20–25 ns and 40–50 ns, respectively, and τ = 500 ns. Echo decays were measured under the same conditions with an initial τ value of 500 ns. DEER measurements were recorded using the four-pulse DEER sequence (π/2νobs – τ1 – πνobs – (τ1 + t) – πνpump – (τ2-t) – πνobs – τ2 – echo)[25],[26] with a chirp pump pulse[23] using eight-step phase cycling and monitoring the echo intensity as a function of increasing t. […] The DEER data were analyzed using the DeerAnalysis 2018[27] program with Tikhonov regularization[28] and also verified with DEERNet.[29] […] The calculated distance distributions were obtained from mtsslSuite[30] using maleimide TEMPO (M-TEMPO) as the ligand, and 200 rotamer conformations were generated using clash treatment set to “loose”. […]

“RIRRASVEELTCVPGIGPRLARRILERLA [PA-12, Precursor-Arg peptide in which position 12 has been modified with a cysteine and attached to an M-TEMPO spin label]” was tested, and the “maximum modulation depth corrected for free PA” value (polyU [1]; 30 μM PA-12, 1 mg/mL polyU, corrected for 40% component I) was 9.5%, the “DEER modulation depth (Δ) with polyU” value (polyU [1]; 30 μM PA-12, 1 mg/mL polyU, local concentration 25 μM) was 5.7% and the “DEER modulation depth with polyU (in words)” value (polyU [1]; 100 μM PA-12, 2 mg/mL polyU) was “higher modulation depth than the sample with 1 mg/mL polyU”. The “DEER modulation with polyU (in words)” value (polyU [1]; 150 μM PA-12, 0.5 mg/mL polyU) was “modulation could no longer be detected”, the “DEER modulation depth (Δ) with polyU” value (polyU [1]; 150 μM PA-12, 1 mg/mL polyU) was 2% and the “DEER modulation with polyU (in words)” value (polyU [1]; 150 μM PA-12, 1 mg/mL polyU) was “modulation reappeared again”. For the same sequence, the “local concentration of detected spins” value (polyU [1]; PA-12 30 μM / polyU 1 mg/mL) was 25 µM and 25 ± 2 µM, the “local concentration of detected spins” value (polyU [1]; PA-12 100 μM / polyU 1 mg/mL) was 48 ± 4.5 µM and the “local concentration of detected spins” value (polyU [1]; PA-12 100 μM / polyU 2 mg/mL) was 53 ± 5 µM. For the same sequence, the “local concentration of detected spins” value (polyU [1]; PA-12 150 μM / polyU 0.1 mg/mL) was 91 ± 8 µM, the “local concentration of detected spins” value (polyU [1]; PA-12 150 μM / polyU 0.2 mg/mL) was 75 ± 7 µM and the “local concentration of detected spins” value (polyU [1]; PA-12 150 μM / polyU 0.35 mg/mL) was 45 ± 4 µM. The “local concentration of detected spins” value (polyU [1]; PA-12 150 μM / polyU 0.5 mg/mL) was 2.3 µM and 2.3 ± 2 µM, the “local concentration of detected spins” value (polyU [1]; PA-12 150 μM / polyU 1 mg/mL) was 23 µM and 23 ± 2 µM and the echo signal remaining (polyU [2]; 150 μM PA-12, 0.5 mg/mL polyU (plateau), relative to no polyU) was 8%. The fast-decaying echo component (polyU [2]; 1 mg/mL polyU, 80% spin dilution, final PA 150 μM) was “the fast-decaying component became clearly visible”.
